# Experimental data from patent publication US20230081426A1, “COMPOUNDS AND METHODS FOR KRAS MODULATION AND INDICATIONS THEREFOR” (Plexxikon Inc., priority 2020, published 2023).
# Key:
# [1] = molecular target: T1, G12D-mutant human KRAS (amino acid residues 1-188) (Homo sapiens, UniProt P01116, G12D); assay: KRAS Binding Disruption Assay (AlphaScreen; biotinylated KRpep-2d analogue or RAF1-RBD), G12D; details: KRAS G12D; geometric mean; read-out: KRAS GMean IC50 (uM) MUTATION: G12D
# T1 construct: G12D or G12C-mutant human KRAS (amino acid residues 1-188) with FLAG tag; made in house; host or cells: E. coli
# Procedure, shortened: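 AlphaScreen readout: signal falls as compound displaces biotinylated KRpep-2d analogue or RAF1-RBD from mutant KRAS. Both partners at 5-20 nM, 1 h binding at 25° C, then 10 μg/mL Anti-Flag acceptor and streptavidin donor beads for 1 h. IC50 by nonlinear regression of % inhibition.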
# [2] = molecular target: T2, G12V-mutant human KRAS (amino acid residues 1-188) (Homo sapiens, UniProt P01116, G12V); assay: KRAS Binding Competition Assay (AlphaScreen; biotinylated KRpep-2d analogue), G12V; details: geometric mean, read-out: KRAS GMean IC50 (uM) MUTATION: G12V
# T2 construct: G12V-mutant human KRAS (amino acid residues 1-188) with FLAG tag was purified from E. coli; made in house; host or cells: E. coli
IC50 [1],IC50 [2],Structure (SMILES)
0.0001 to 10 µM,10 to 100 µM,"O=[N+]([O-])c1ccc(COc2nc(N3C[C@H]4CC[C@@H](C3)N4)c3cc(Cl)c(-c4c(O)cccc4F)c(F)c3n2)cc1 [P-0389, 2-(4-((1R,5S)-3,8-diazabicyclo[3.2.1]octan-3-yl)-6-chloro-8-fluoro-2-((4-nitrobenzyl)oxy)quinazolin-7-yl)-3-fluorophenol]"
0.0001 to 10 µM,0.0001 to 10 µM,"CN(C)c1cccc(Oc2nc(N3C[C@H]4CC[C@@H](C3)N4)c3cc(Cl)c(-c4c(O)cccc4F)c(F)c3n2)c1 [P-0390, 2-(4-((1R,5S)-3,8-diazabicyclo[3.2.1]octan-3-yl)-6-chloro-2-(3-(dimethylamino)phenoxy)-8-fluoroquinazolin-7-yl)-3-fluorophenol]"
0.0001 to 10 µM,0.0001 to 10 µM,"CN(C)c1ccc(Nc2nc(N3C[C@H]4CC[C@@H](C3)N4)c3cc(Cl)c(-c4c(O)cccc4F)c(F)c3n2)cc1 [P-0391, 2-(4-((1R,5S)-3,8-diazabicyclo[3.2.1]octan-3-yl)-6-chloro-2-((4-(dimethylamino)phenyl)amino)-8-fluoroquinazolin-7-yl)-3-fluorophenol]"
0.0001 to 10 µM,10 to 100 µM,"Oc1cccc(F)c1-c1c(Cl)cc2c(N3C[C@H]4CC[C@@H](C3)N4)nc(OCC34CCCN3CCC4)nc2c1F [P-0392, 2-(4-((1R,5S)-3,8-diazabicyclo[3.2.1]octan-3-yl)-6-chloro-8-fluoro-2-((tetrahydro-1H-pyrrolizin-7a(5H)-yl)methoxy)quinazolin-7-yl)-3-fluorophenol]"
0.0001 to 10 µM,0.0001 to 10 µM,"CN1CCC[C@H]1COc1nc(N2C[C@H]3CC[C@@H](C2)N3C(=O)CCCn2ccnc2)c2ccc(-c3cc(O)cc4ccccc34)c(F)c2n1 [P-0393, 1-((1R,5S)-3-(8-fluoro-7-(3-hydroxynaphthalen-1-yl)-2-(((S)-1-methylpyrrolidin-2-yl)methoxy)quinazolin-4-yl)-3,8-diazabicyclo[3.2.1]octan-8-yl)-4-(1H-imidazol-1-yl)butan-1-one]"
0.0001 to 10 µM,0.0001 to 10 µM,"C[C@H](O)C(=O)N1[C@@H]2CC[C@H]1CN(c1nc(OC[C@@H]3CCCN3C)nc3c(F)c(-c4cc(O)cc5ccccc45)ccc13)C2 [P-0394, (S)-1-((1R,5S)-3-(8-fluoro-7-(3-hydroxynaphthalen-1-yl)-2-(((S)-1-methylpyrrolidin-2-yl)methoxy)quinazolin-4-yl)-3,8-diazabicyclo[3.2.1]octan-8-yl)-2-hydroxypropan-1-one]"
0.0001 to 10 µM,0.0001 to 10 µM,"C[C@@H](O)C(=O)N1[C@@H]2CC[C@H]1CN(c1nc(OC[C@@H]3CCCN3C)nc3c(F)c(-c4cc(O)cc5ccccc45)ccc13)C2 [P-0395, (R)-1-((1R,5S)-3-(8-fluoro-7-(3-hydroxynaphthalen-1-yl)-2-(((S)-1-methylpyrrolidin-2-yl)methoxy)quinazolin-4-yl)-3,8-diazabicyclo[3.2.1]octan-8-yl)-2-hydroxypropan-1-one]"
0.0001 to 10 µM,0.0001 to 10 µM,"CN1CCC[C@H]1COc1nc(N2C[C@H]3CC[C@@H](C2)N3C(=O)C2CCC(=O)N2)c2ccc(-c3cc(O)cc4ccccc34)c(F)c2n1 (stereo partly drawn) [P-0396, 5-((1R,5S)-3-(8-fluoro-7-(3-hydroxynaphthalen-1-yl)-2-(((S)-1-methylpyrrolidin-2-yl)methoxy)quinazolin-4-yl)-3,8-diazabicyclo[3.2.1]octane-8-carbonyl)pyrrolidin-2-one]"
0.0001 to 10 µM,0.0001 to 10 µM,"CN1CCC[C@H]1COc1nc(N2C[C@H]3CC[C@@H](C2)N3C(=O)CC(N)=O)c2ccc(-c3cc(O)cc4ccccc34)c(F)c2n1 [P-0398, 3-((1R,5S)-3-(8-fluoro-7-(3-hydroxynaphthalen-1-yl)-2-(((S)-1-methylpyrrolidin-2-yl)methoxy)quinazolin-4-yl)-3,8-diazabicyclo[3.2.1]octan-8-yl)-3-oxopropanamide]"
0.0001 to 10 µM,0.0001 to 10 µM,"CN1CCC[C@H]1COc1nc(N2C[C@H]3CC[C@@H](C2)N3C(=O)CCC(N)=O)c2ccc(-c3cc(O)cc4ccccc34)c(F)c2n1 [P-0399, 4-((1R,5S)-3-(8-fluoro-7-(3-hydroxynaphthalen-1-yl)-2-(((S)-1-methylpyrrolidin-2-yl)methoxy)quinazolin-4-yl)-3,8-diazabicyclo[3.2.1]octan-8-yl)-4-oxobutanamide]"
0.0001 to 10 µM,0.0001 to 10 µM,"CN1CCC[C@H]1COc1nc(N2C[C@H]3CC[C@@H](C2)N3C(=O)C(=O)Nc2ccccn2)c2ccc(-c3cc(O)cc4ccccc34)c(F)c2n1 [P-0400, 2-((1R,5S)-3-(8-fluoro-7-(3-hydroxynaphthalen-1-yl)-2-(((S)-1-methylpyrrolidin-2-yl)methoxy)quinazolin-4-yl)-3,8-diazabicyclo[3.2.1]octan-8-yl)-2-oxo-N-(pyridin-2-yl)acetamide]"
0.0001 to 10 µM,0.0001 to 10 µM,"CN1CCC[C@H]1COc1nc(N2C[C@H]3CC[C@@H](C2)N3C(=O)Cn2ccnc2)c2ccc(-c3cc(O)cc4ccccc34)c(F)c2n1 [P-0401, 1-((1R,5S)-3-(8-fluoro-7-(3-hydroxynaphthalen-1-yl)-2-(((S)-1-methylpyrrolidin-2-yl)methoxy)quinazolin-4-yl)-3,8-diazabicyclo[3.2.1]octan-8-yl)-2-(1H-imidazol-1-yl)ethan-1-one]"
0.0001 to 10 µM,0.0001 to 10 µM,"CN1CCC[C@H]1COc1nc(N2C[C@H]3CC[C@@H](C2)N3C(=O)Cc2cnn(C)c2)c2ccc(-c3cc(O)cc4ccccc34)c(F)c2n1 [P-0402, 1-((1R,5S)-3-(8-fluoro-7-(3-hydroxynaphthalen-1-yl)-2-(((S)-1-methylpyrrolidin-2-yl)methoxy)quinazolin-4-yl)-3,8-diazabicyclo[3.2.1]octan-8-yl)-2-(1-methyl-1H-pyrazol-4-yl)ethan-1-one]"
0.0001 to 10 µM,10 to 100 µM,"CN1CCC[C@H]1COc1nc(N2C[C@H]3CC[C@@H](C2)N3C(=O)[C@H]2CCCN2)c2ccc(-c3cc(O)cc4ccccc34)c(F)c2n1 [P-0403, 4-((1R,5S)-8-(D-prolyl)-3,8-diazabicyclo[3.2.1]octan-3-yl)-8-fluoro-7-(3-hydroxynaphthalen-1-yl)-2-(((S)-1-methylpyrrolidin-2-yl)methoxy)quinazoline]"
0.0001 to 10 µM,10 to 100 µM,"CN1CCC[C@H]1COc1nc(N2C[C@H]3CC[C@@H](C2)N3C(=O)C(O)CO)c2ccc(-c3cc(O)cc4ccccc34)c(F)c2n1 (stereo partly drawn) [P-0404, 1-((1R,5S)-3-(8-fluoro-7-(3-hydroxynaphthalen-1-yl)-2-(((S)-1-methylpyrrolidin-2-yl)methoxy)quinazolin-4-yl)-3,8-diazabicyclo[3.2.1]octan-8-yl)-2,3-dihydroxypropan-1-one]"
0.0001 to 10 µM,10 to 100 µM,"CN1CCC[C@H]1COc1nc(N2C[C@H]3CC[C@@H](C2)N3S(=O)(=O)N[C@@H]2CCNC2)c2ccc(-c3cc(O)cc4ccccc34)c(F)c2n1 [P-0405, (1R,5S)-3-(8-fluoro-7-(3-hydroxynaphthalen-1-yl)-2-(((S)-1-methylpyrrolidin-2-yl)methoxy)quinazolin-4-yl)-N-((R)-pyrrolidin-3-yl)-3,8-diazabicyclo[3.2.1]octane-8-sulfonamide]"
10 to 100 µM,100 to 1000 µM,"Cc1cccc2c1N(c1ccc3c(N4C[C@H]5CC[C@@H](C4)N5)nc(OC[C@@H]4CCCN4C)nc3c1)CC(O)C2 (stereo partly drawn) [P-0406, 1-(4-((1R,5S)-3,8-diazabicyclo[3.2.1]octan-3-yl)-2-(((S)-1-methylpyrrolidin-2-yl)methoxy)quinazolin-7-yl)-8-methyl-1,2,3,4-tetrahydroquinolin-3-ol]"
0.0001 to 10 µM,0.0001 to 10 µM,"CN1CCC[C@H]1COc1nc(N2C[C@H]3CC[C@@H](C2)N3C(=O)CS(N)(=O)=O)c2ccc(-c3cc(O)cc4ccccc34)cc2n1 [P-0407, 2-((1R,5S)-3-(7-(3-hydroxynaphthalen-1-yl)-2-(((S)-1-methylpyrrolidin-2-yl)methoxy)quinazolin-4-yl)-3,8-diazabicyclo[3.2.1]octan-8-yl)-2-oxoethane-1-sulfonamide]"
0.0001 to 10 µM,0.0001 to 10 µM,"CN(C)S(=O)(=O)CC(=O)N1[C@@H]2CC[C@H]1CN(c1nc(OCC34CCCN3CCC4)nc3c(F)c(-c4cc(O)cc5ccccc45)ccc13)C2 [P-0410, 2-((1R,5S)-3-(8-fluoro-7-(3-hydroxynaphthalen-1-yl)-2-((tetrahydro-1H-pyrrolizin-7a(5H)-yl)methoxy)quinazolin-4-yl)-3,8-diazabicyclo[3.2.1]octan-8-yl)-N,N-dimethyl-2-oxoethane-1-sulfonamide]"
0.0001 to 10 µM,10 to 100 µM,CN(C)CCc1nc(N2C[C@H]3CC[C@@H](C2)N3)c2ccc(-c3cc(O)cc4ccccc34)c(F)c2n1 [P-0413]
10 to 100 µM,10 to 100 µM,"CN1CCN(CCNC(=O)N2[C@@H]3CC[C@H]2CN(c2nc(OCC4CCCN4C)nc4c(F)c(-c5cc(O)cc6ccccc56)ccc24)C3)CC1 (stereo partly drawn) [P-0416, (1R,5S)-3-(8-fluoro-7-(3-hydroxynaphthalen-1-yl)-2-((1-methylpyrrolidin-2-yl)methoxy)quinazolin-4-yl)-N-(2-(4-methylpiperazin-1-yl)ethyl)-3,8-diazabicyclo[3.2.1]octane-8-carboxamide]"
0.0001 to 10 µM,0.0001 to 10 µM,"CN1CCCC1COc1nc(N2C[C@H]3CC[C@@H](C2)N3C(=O)NC2COC(C)(C)C2)c2ccc(-c3cc(O)cc4ccccc34)c(F)c2n1 (stereo partly drawn) [P-0417, (1R,5S)-N-(5,5-dimethyltetrahydrofuran-3-yl)-3-(8-fluoro-7-(3-hydroxynaphthalen-1-yl)-2-((1-methylpyrrolidin-2-yl)methoxy)quinazolin-4-yl)-3,8-diazabicyclo[3.2.1]octane-8-carboxamide]"
